Assay results as given in PMC7026418, “The kinase polypharmacology landscape of clinical PARP inhibitors” (Scientific Reports, 2020).
Like-named read-outs stand apart in the source and are kept apart here. Blank lines part the entries; values can stand above or below the molecule they belong to.

How the values were obtained:
Test in all cases: biochemical
Parameters in all cases: DiscoveRx KINOMEscan active site-directed competition binding; percent of control kinase bound to immobilised ligand
CDK11 = biological target: T1, CDK11 (Homo sapiens, UniProt Q9BWU1)
T1 construct: gene CDK19

[1] = biological target: T2, ABL1(H396P)-phosphorylated (Homo sapiens, UniProt P00519, H396P)
T2 construct: phosphorylated

MTOR = MTOR (Homo sapiens, UniProt P42345)
FGFR3 = FGFR3 (Homo sapiens, UniProt P22607)
HUNK = biological target: T3, HUNK (Homo sapiens, UniProt P57058)
T3 sequence (P57058 1-714): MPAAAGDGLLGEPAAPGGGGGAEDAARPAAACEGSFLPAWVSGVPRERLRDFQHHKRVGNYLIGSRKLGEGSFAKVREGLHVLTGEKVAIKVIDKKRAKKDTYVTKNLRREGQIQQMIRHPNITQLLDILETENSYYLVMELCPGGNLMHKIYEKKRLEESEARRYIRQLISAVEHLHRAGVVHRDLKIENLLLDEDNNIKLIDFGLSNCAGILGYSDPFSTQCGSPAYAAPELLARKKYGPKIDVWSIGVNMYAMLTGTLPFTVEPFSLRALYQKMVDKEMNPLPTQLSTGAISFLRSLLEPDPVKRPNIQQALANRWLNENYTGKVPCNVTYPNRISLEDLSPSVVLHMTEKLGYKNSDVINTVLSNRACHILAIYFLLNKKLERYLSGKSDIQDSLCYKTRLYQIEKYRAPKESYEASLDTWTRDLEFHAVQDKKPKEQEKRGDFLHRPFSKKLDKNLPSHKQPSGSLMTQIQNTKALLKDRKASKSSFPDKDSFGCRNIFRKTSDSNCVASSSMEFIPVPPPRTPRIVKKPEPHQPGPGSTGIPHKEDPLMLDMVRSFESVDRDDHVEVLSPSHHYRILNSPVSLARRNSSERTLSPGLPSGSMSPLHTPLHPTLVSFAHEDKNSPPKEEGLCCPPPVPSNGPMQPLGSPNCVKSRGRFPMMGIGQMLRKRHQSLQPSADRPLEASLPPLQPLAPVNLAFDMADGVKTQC

CTK = biological target: T4, CTK (Homo sapiens, UniProt P42679)
T4 construct: gene MATK
T4 sequence (P42679 1-507): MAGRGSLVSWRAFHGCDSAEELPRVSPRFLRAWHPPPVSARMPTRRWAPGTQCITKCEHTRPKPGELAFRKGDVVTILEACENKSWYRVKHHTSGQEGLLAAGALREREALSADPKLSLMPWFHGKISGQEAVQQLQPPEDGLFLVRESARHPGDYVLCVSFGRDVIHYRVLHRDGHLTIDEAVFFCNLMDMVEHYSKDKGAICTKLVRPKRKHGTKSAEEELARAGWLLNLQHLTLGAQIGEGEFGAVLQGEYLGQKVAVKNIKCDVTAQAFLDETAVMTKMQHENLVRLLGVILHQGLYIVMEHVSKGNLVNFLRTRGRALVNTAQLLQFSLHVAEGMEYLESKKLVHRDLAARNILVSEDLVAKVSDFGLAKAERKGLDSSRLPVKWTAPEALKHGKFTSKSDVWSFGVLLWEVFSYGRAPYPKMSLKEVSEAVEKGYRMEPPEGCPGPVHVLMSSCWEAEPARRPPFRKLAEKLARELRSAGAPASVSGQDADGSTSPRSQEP

[2] = biological target: T5, ABL1(H396P)-nonphosphorylated (Homo sapiens, UniProt P00519, H396P)
T5 construct: nonphosphorylated

EPHA3 = biological target: T6, EPHA3 (Homo sapiens, UniProt P29320)
T6 sequence (P29320 1-983): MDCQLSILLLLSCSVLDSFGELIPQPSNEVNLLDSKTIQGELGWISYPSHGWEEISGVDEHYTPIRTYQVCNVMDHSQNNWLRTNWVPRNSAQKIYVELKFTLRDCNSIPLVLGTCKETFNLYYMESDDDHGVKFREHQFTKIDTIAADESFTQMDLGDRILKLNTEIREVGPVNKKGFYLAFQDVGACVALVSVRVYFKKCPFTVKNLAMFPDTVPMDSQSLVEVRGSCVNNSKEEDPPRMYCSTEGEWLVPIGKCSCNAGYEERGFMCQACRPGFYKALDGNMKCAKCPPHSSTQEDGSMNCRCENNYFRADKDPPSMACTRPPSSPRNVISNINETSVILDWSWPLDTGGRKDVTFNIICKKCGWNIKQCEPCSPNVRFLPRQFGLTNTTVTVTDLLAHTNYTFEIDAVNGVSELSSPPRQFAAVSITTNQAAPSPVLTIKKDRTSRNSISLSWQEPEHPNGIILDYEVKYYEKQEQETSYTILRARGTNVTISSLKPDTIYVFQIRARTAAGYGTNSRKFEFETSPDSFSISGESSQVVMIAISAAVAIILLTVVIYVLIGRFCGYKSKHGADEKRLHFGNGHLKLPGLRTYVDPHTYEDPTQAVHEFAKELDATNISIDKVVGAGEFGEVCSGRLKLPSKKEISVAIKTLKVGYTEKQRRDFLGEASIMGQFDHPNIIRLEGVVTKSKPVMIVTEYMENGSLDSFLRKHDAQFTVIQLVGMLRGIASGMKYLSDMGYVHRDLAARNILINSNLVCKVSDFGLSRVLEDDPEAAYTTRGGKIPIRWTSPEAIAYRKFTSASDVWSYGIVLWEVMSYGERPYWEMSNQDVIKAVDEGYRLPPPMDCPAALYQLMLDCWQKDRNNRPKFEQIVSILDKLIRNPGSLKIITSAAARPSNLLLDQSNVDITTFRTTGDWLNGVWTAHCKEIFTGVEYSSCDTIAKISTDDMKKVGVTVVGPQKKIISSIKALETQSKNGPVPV

[3] = read-out: Olaparib / %Ctrl @ 10000nM
[4] = read-out: Talazoparib (BMN 673) / %Ctrl @ 10000nM
[5] = read-out: Rucaparib / %Ctrl @ 10000nM, binding competition, % of control
[6] = read-out: Niraparib (MK-4827) / %Ctrl @ 10000nM

T1 sequence (Q9BWU1 whole entry): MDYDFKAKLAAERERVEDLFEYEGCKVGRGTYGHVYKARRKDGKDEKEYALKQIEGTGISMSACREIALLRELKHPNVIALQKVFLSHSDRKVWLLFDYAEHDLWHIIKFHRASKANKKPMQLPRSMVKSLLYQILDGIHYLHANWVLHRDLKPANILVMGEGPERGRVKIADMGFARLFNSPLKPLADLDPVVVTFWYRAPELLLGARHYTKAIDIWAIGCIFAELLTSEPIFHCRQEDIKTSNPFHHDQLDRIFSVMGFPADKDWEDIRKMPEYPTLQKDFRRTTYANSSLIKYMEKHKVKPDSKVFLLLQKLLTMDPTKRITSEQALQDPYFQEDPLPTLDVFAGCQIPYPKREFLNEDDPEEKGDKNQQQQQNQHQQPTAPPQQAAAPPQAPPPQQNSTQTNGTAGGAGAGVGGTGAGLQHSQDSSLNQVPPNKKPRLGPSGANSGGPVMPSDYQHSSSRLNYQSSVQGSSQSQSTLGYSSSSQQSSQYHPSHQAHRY
Sequence of FGFR3 (P22607 whole entry): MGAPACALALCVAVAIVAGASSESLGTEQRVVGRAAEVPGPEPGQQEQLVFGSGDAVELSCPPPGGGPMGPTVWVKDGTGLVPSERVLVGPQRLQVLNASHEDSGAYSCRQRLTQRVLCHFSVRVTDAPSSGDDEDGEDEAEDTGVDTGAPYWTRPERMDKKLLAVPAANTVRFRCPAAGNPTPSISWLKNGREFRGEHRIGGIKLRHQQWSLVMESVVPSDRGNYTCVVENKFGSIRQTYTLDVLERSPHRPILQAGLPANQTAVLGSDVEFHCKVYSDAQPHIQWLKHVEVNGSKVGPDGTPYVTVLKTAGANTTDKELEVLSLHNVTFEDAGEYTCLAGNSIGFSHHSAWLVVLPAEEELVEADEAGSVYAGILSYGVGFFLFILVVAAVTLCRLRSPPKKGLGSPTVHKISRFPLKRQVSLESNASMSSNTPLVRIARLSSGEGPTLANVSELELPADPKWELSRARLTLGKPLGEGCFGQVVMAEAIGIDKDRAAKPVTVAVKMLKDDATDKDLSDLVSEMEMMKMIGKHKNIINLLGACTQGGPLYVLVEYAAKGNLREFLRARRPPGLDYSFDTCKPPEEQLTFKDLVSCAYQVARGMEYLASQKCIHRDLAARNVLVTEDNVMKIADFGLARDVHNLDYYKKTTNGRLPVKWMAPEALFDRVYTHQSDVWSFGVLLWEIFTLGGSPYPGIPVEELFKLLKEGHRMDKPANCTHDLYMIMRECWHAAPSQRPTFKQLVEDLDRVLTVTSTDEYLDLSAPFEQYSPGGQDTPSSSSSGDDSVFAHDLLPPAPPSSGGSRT

percent of control binding at 10 µM (CDK11; [3]): 85%
percent of control binding at 10 µM [1, 3]: 83%
percent of control binding at 10 µM (MTOR; [3]): 94%
percent of control binding at 10 µM (FGFR3; [3]): 100%
percent of control binding at 10 µM (HUNK; [3]): 88%
percent of control binding at 10 µM (CTK; [3]): 96%
percent of control binding at 10 µM [2, 3]: 82%
percent of control binding at 10 µM (EPHA3; [3]): 100%
Compound: O=C(c1cc(Cc2n[nH]c(=O)c3ccccc23)ccc1F)N1CCN(C(=O)C2CC2)CC1 [Olaparib]

percent of control binding at 10 µM (CDK11; [4]): 93%
percent of control binding at 10 µM [1, 4]: 92%
percent of control binding at 10 µM (MTOR; [4]): 35%
percent of control binding at 10 µM (FGFR3; [4]): 100%
percent of control binding at 10 µM (HUNK; [4]): 100%
percent of control binding at 10 µM (CTK; [4]): 78%
percent of control binding at 10 µM [2, 4]: 92%
percent of control binding at 10 µM (EPHA3; [4]): 100%
Compound: Cn1ncnc1[C@H]1c2n[nH]c(=O)c3cc(F)cc(c23)N[C@@H]1c1ccc(F)cc1 [Talazoparib]

percent of control binding at 10 µM (CDK11; [5]): 94%
percent of control binding at 10 µM [1, 5]: 80%
percent of control binding at 10 µM (MTOR; [5]): 96%
percent of control binding at 10 µM (FGFR3; [5]): 99%
percent of control binding at 10 µM (HUNK; [5]): 100%
percent of control binding at 10 µM (CTK; [5]): 76%
percent of control binding at 10 µM [2, 5]: 68%
percent of control binding at 10 µM (EPHA3; [5]): 88%
Compound: CNCc1ccc(-c2[nH]c3cc(F)cc4c3c2CCNC4=O)cc1 [Rucaparib]

Compound: NC(=O)c1cccc2cn(-c3ccc([C@@H]4CCCNC4)cc3)nc12 [Niraparib]
percent of control binding at 10 µM (CDK11; [6]): 93%
percent of control binding at 10 µM [1, 6]: 58%
percent of control binding at 10 µM (MTOR; [6]): 85%
percent of control binding at 10 µM (FGFR3; [6]): 94%
percent of control binding at 10 µM (HUNK; [6]): 98%
percent of control binding at 10 µM (CTK; [6]): 100%
percent of control binding at 10 µM [2, 6]: 65%
percent of control binding at 10 µM (EPHA3; [6]): 81%
